{"source": "paper PMC9532703", "about": "“A novel small molecule RK-019 inhibits FGFR2-amplification gastric cancer cell proliferation and induces apoptosis in vitro and in vivo” (Frontiers in Pharmacology, 2022)", "assay_in_all_cases": "Kinase selectivity panel", "type_in_all_cases": "biochemical", "key": {"DCAMKL2(h)": {"target": "T1, DCAMKL2(h) (Homo sapiens, UniProt Q8N568)", "T1 construct": "purchased Eurofins Discovery Services (KinaseProfiler)", "conditions": "read-out: Inhibition(%) @ 1 µM RK-019", "procedure,_shortened": "(§1)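 Single-point selectivity screen: 1 µM compound, recombinant human enzyme, in vitro ATP-site competition binding; result expressed as inhibition ratio.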"}, "CaMKIß(h)": {"target": "T2, CaMKIß(h) (Homo sapiens, UniProt Q6P2M8)", "T2 construct": "purchased Eurofins Discovery Services (KinaseProfiler)", "conditions": "read-out: Inhibition(%) @ 1 µM RK-019", "procedure,_shortened": "as §1"}, "PAK3(h)": {"target": "T3, PAK3(h) (Homo sapiens, UniProt O75914)", "T3 construct": "purchased Eurofins Discovery Services (KinaseProfiler)", "conditions": "read-out: Inhibition(%) @ 1 µM RK-019", "procedure,_shortened": "as §1"}, "EphB2(h)": {"target": "T4, EphB2(h) (Homo sapiens, UniProt P29323)", "T4 construct": "purchased Eurofins Discovery Services (KinaseProfiler)", "conditions": "read-out: Inhibition(%) @ 1 µM RK-019", "procedure,_shortened": "as §1"}, "B-Raf(h)": {"target": "T5, B-Raf(h) (Homo sapiens, UniProt P15056)", "T5 construct": "purchased Eurofins Discovery Services (KinaseProfiler)", "conditions": "read-out: Inhibition(%) @ 1 µM RK-019", "procedure,_shortened": "as §1"}, "PKCθ(h)": {"target": "T6, PKCθ(h) (Homo sapiens, UniProt Q04759)", "T6 construct": "purchased Eurofins Discovery Services (KinaseProfiler)", "conditions": "read-out: Inhibition(%) @ 1 µM RK-019", "procedure,_shortened": "as §1"}, "GCN2(h)": {"target": "T7, GCN2(h) (Homo sapiens, UniProt Q9P2K8)", "T7 construct": "purchased Eurofins Discovery Services (KinaseProfiler)", "conditions": "read-out: Inhibition(%) @ 1 µM RK-019", "procedure,_shortened": "as §1"}, "PAR-1Bα(h)": {"target": "T8, PAR-1Bα(h) (Homo sapiens, UniProt Q7KZI7)", "T8 construct": "purchased Eurofins Discovery Services (KinaseProfiler)", "T8 sequence (Q7KZI7 1-725 isoform Q7KZI7-4)": "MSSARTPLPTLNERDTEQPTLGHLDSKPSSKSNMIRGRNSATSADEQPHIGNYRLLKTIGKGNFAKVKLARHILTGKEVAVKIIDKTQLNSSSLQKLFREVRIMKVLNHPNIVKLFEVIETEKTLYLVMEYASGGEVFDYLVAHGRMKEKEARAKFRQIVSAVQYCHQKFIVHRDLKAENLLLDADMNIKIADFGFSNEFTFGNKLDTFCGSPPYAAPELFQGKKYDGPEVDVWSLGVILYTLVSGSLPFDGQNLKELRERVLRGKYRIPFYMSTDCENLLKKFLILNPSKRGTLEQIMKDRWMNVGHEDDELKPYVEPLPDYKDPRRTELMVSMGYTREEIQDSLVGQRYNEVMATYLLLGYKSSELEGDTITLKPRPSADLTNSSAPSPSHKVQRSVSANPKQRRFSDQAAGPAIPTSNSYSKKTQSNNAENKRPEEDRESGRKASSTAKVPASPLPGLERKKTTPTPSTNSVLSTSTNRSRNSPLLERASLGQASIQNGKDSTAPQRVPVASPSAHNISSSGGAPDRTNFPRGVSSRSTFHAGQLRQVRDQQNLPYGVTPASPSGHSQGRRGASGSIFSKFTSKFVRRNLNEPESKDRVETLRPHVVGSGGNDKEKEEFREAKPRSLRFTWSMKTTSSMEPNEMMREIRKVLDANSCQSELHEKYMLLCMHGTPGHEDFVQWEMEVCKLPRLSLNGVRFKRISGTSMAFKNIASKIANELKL", "conditions": "read-out: Inhibition(%) @ 1 µM RK-019", "procedure,_shortened": "as §1"}, "Met(Y1248C)(h)": {"target": "T9, Met(Y1248C)(h) (Homo sapiens, UniProt P08581, Y1230C)", "T9 construct": "purchased Eurofins Discovery Services (KinaseProfiler)", "conditions": "read-out: Inhibition(%) @ 1 µM RK-019", "procedure,_shortened": "as §1"}, "PKCζ(h)": {"target": "T10, PKCζ(h) (Homo sapiens, UniProt Q05513)", "T10 construct": "purchased Eurofins Discovery Services (KinaseProfiler)", "conditions": "read-out: Inhibition(%) @ 1 µM RK-019", "procedure,_shortened": "as §1"}, "EphA1(h)": {"target": "T11, EphA1(h) (Homo sapiens, UniProt P21709)", "T11 construct": "purchased Eurofins Discovery Services (KinaseProfiler)", "T11 sequence (P21709 26-976)": "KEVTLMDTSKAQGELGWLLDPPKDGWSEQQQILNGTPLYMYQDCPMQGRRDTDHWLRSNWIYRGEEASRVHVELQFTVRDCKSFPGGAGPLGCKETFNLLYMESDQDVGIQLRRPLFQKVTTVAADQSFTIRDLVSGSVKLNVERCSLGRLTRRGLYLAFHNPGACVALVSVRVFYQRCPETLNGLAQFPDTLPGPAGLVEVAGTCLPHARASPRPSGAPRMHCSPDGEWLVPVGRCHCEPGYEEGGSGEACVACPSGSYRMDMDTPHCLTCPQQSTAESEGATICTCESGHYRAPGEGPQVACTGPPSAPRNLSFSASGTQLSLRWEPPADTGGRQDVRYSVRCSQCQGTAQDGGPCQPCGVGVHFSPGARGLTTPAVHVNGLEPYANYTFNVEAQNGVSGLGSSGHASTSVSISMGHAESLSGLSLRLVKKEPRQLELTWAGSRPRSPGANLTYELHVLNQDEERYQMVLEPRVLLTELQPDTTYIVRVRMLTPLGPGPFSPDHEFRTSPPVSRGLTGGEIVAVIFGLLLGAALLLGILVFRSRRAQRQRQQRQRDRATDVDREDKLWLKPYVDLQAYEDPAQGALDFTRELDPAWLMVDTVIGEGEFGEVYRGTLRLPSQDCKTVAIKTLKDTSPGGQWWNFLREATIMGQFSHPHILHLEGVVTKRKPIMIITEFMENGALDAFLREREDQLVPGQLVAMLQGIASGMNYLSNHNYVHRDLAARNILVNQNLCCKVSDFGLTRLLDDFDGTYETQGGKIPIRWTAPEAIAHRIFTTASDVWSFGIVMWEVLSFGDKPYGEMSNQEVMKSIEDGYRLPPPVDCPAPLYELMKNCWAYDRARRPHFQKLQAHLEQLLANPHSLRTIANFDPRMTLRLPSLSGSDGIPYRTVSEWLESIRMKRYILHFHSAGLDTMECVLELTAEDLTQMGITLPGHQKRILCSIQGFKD", "conditions": "read-out: Inhibition(%) @ 1 µM RK-019", "procedure,_shortened": "as §1"}, "A-Raf(h)": {"target": "T12, A-Raf(h) (Homo sapiens, UniProt P10398)", "T12 construct": "purchased Eurofins Discovery Services (KinaseProfiler)", "conditions": "read-out: Inhibition(%) @ 1 µM RK-019", "procedure,_shortened": "as §1"}, "SAPK2b(h)": {"target": "T13, SAPK2b(h) (Homo sapiens, UniProt Q15759)", "T13 construct": "purchased Eurofins Discovery Services (KinaseProfiler)", "conditions": "read-out: Inhibition(%) @ 1 µM RK-019", "procedure,_shortened": "as §1"}, "Src(1-530)(h)": {"target": "T14, Src(1-530)(h) (Homo sapiens, UniProt P12931)", "T14 construct": "purchased Eurofins Discovery Services (KinaseProfiler)", "T14 sequence (P12931 1-530 limits assumed)": "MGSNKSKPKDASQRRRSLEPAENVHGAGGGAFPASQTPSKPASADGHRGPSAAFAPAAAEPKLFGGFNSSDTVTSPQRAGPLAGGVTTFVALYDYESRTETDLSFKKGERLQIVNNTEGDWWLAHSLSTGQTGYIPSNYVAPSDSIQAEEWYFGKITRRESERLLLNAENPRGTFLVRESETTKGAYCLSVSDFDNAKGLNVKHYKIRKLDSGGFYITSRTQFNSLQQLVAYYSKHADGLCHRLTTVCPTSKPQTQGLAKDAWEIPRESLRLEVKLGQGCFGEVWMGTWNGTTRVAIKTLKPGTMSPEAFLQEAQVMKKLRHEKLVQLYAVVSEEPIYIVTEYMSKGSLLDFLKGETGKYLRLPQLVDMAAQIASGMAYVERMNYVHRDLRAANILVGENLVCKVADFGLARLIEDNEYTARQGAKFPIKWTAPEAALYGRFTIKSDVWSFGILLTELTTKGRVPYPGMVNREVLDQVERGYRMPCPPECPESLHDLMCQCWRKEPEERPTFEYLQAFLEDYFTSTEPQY", "conditions": "read-out: Inhibition(%) @ 1 µM RK-019", "procedure,_shortened": "as §1"}, "NEK11(h)": {"target": "T15, NEK11(h) (Homo sapiens, UniProt Q8NG66)", "T15 construct": "purchased Eurofins Discovery Services (KinaseProfiler)", "conditions": "read-out: Inhibition(%) @ 1 µM RK-019", "procedure,_shortened": "as §1"}, "MRCKβ(h)": {"target": "T16, MRCKβ(h) (Homo sapiens, UniProt Q9Y5S2)", "T16 construct": "purchased Eurofins Discovery Services (KinaseProfiler)", "conditions": "read-out: Inhibition(%) @ 1 µM RK-019", "procedure,_shortened": "as §1"}, "CDK5/p35(h)": {"target": "T17, CDK5/p35(h) (Homo sapiens, UniProt Q00535)", "T17 construct": "purchased Eurofins Discovery Services (KinaseProfiler)", "conditions": "read-out: Inhibition(%) @ 1 µM RK-019", "procedure,_shortened": "as §1"}, "DRAK1(h)": {"target": "T18, DRAK1(h) (Homo sapiens, UniProt Q9UEE5)", "T18 construct": "purchased Eurofins Discovery Services (KinaseProfiler)", "conditions": "read-out: Inhibition(%) @ 1 µM RK-019", "procedure,_shortened": "as §1"}, "ROCK-I(h)": {"target": "T19, ROCK-I(h) (Homo sapiens, UniProt Q13464)", "T19 construct": "purchased Eurofins Discovery Services (KinaseProfiler)", "conditions": "read-out: Inhibition(%) @ 1 µM RK-019", "procedure,_shortened": "as §1"}, "CaMKIIα(h)": {"target": "T20, CaMKIIα(h) (Homo sapiens, UniProt Q9UQM7)", "T20 construct": "purchased Eurofins Discovery Services (KinaseProfiler)", "conditions": "read-out: Inhibition(%) @ 1 µM RK-019", "procedure,_shortened": "as §1"}, "PDGFRα(V561D)(h)": {"target": "T21, PDGFRα(V561D)(h) (Homo sapiens, UniProt P16234, V561D)", "T21 construct": "purchased Eurofins Discovery Services (KinaseProfiler)", "conditions": "read-out: Inhibition(%) @ 1 µM RK-019", "procedure,_shortened": "as §1"}, "CaMKIδ(h)": {"target": "T22, CaMKIδ(h) (Homo sapiens, UniProt Q8IU85)", "T22 construct": "purchased Eurofins Discovery Services (KinaseProfiler)", "conditions": "read-out: Inhibition(%) @ 1 µM RK-019", "procedure,_shortened": "as §1"}, "WNK4(h)": {"target": "T23, WNK4(h) (Homo sapiens, UniProt Q96J92)", "T23 construct": "purchased Eurofins Discovery Services (KinaseProfiler)", "conditions": "read-out: Inhibition(%) @ 1 µM RK-019", "procedure,_shortened": "as §1"}, "CDK7/cyclinH/MAT1(h)": {"target": "T24, CDK7/cyclinH/MAT1(h) (Homo sapiens, UniProt P50613)", "T24 construct": "purchased Eurofins Discovery Services (KinaseProfiler)", "conditions": "read-out: Inhibition(%) @ 1 µM RK-019", "procedure,_shortened": "as §1"}, "Lyn(m)": {"target": "T25, Lyn(m) (Mus musculus, UniProt P25911)", "T25 construct": "purchased Eurofins Discovery Services (KinaseProfiler)", "conditions": "read-out: Inhibition(%) @ 1 µM RK-019"}, "GSK3α(h)": {"target": "T26, GSK3α(h) (Homo sapiens, UniProt P49840)", "T26 construct": "purchased Eurofins Discovery Services (KinaseProfiler)", "conditions": "read-out: Inhibition(%) @ 1 µM RK-019", "procedure,_shortened": "as §1"}, "Tec(h) activated": {"target": "T27, Tec(h) activated (Homo sapiens, UniProt P42680)", "T27 construct": "purchased Eurofins Discovery Services (KinaseProfiler)", "conditions": "read-out: Inhibition(%) @ 1 µM RK-019", "procedure,_shortened": "as §1"}, "ZIPK(h)": {"target": "T28, ZIPK(h) (Homo sapiens, UniProt O43293)", "T28 construct": "purchased Eurofins Discovery Services (KinaseProfiler)", "conditions": "read-out: Inhibition(%) @ 1 µM RK-019", "procedure,_shortened": "as §1"}, "Ret(h)": {"target": "T29, Ret(h) (Homo sapiens, UniProt P07949)", "T29 construct": "purchased Eurofins Discovery Services (KinaseProfiler)", "T29 sequence (P07949 29-1114)": "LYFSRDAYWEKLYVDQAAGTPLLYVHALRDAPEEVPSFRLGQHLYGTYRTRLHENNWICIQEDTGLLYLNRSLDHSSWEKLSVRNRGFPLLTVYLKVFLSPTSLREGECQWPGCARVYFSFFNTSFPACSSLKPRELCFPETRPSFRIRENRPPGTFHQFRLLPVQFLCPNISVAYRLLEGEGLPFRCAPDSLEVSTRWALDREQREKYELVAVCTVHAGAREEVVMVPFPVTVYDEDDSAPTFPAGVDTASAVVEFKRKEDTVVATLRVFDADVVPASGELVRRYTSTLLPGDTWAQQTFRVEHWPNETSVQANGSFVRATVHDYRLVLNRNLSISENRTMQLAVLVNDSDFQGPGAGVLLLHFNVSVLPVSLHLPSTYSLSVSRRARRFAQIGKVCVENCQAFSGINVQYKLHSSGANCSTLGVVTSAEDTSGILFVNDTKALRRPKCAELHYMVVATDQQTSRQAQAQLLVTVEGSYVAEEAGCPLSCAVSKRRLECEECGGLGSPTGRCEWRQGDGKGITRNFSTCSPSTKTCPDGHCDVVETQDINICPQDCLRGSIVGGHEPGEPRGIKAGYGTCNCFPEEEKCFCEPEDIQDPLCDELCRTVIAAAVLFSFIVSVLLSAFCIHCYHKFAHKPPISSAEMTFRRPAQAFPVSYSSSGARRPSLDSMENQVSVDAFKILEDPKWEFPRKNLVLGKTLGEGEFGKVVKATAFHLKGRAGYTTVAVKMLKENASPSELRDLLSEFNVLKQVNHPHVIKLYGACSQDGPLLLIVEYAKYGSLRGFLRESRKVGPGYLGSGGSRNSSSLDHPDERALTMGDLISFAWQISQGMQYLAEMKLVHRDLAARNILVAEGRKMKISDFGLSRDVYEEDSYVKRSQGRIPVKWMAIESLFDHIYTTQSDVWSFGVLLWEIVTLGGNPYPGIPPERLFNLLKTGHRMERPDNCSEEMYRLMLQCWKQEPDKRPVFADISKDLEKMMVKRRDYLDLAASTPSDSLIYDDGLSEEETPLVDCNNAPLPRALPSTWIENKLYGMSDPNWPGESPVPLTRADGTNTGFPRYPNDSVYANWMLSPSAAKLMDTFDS", "procedure,_shortened": "as §1"}, "MARK4(h)": {"target": "T30, MARK4(h) (Homo sapiens, UniProt Q96L34)", "T30 construct": "purchased Eurofins Discovery Services (KinaseProfiler)", "conditions": "read-out: Inhibition(%) @ 1 µM RK-019", "procedure,_shortened": "as §1"}, "TSSK4(h)": {"target": "T31, TSSK4(h) (Homo sapiens, UniProt Q6SA08)", "T31 construct": "purchased Eurofins Discovery Services (KinaseProfiler)", "conditions": "read-out: Inhibition(%) @ 1 µM RK-019", "procedure,_shortened": "as §1"}, "[1]": {"target": "T32, PI3 Kinase (p110a/p65a)(h) (Homo sapiens, UniProt P42336)", "T32 construct": "purchased Eurofins Discovery Services (KinaseProfiler)", "T32 sequence (P42336 whole entry)": "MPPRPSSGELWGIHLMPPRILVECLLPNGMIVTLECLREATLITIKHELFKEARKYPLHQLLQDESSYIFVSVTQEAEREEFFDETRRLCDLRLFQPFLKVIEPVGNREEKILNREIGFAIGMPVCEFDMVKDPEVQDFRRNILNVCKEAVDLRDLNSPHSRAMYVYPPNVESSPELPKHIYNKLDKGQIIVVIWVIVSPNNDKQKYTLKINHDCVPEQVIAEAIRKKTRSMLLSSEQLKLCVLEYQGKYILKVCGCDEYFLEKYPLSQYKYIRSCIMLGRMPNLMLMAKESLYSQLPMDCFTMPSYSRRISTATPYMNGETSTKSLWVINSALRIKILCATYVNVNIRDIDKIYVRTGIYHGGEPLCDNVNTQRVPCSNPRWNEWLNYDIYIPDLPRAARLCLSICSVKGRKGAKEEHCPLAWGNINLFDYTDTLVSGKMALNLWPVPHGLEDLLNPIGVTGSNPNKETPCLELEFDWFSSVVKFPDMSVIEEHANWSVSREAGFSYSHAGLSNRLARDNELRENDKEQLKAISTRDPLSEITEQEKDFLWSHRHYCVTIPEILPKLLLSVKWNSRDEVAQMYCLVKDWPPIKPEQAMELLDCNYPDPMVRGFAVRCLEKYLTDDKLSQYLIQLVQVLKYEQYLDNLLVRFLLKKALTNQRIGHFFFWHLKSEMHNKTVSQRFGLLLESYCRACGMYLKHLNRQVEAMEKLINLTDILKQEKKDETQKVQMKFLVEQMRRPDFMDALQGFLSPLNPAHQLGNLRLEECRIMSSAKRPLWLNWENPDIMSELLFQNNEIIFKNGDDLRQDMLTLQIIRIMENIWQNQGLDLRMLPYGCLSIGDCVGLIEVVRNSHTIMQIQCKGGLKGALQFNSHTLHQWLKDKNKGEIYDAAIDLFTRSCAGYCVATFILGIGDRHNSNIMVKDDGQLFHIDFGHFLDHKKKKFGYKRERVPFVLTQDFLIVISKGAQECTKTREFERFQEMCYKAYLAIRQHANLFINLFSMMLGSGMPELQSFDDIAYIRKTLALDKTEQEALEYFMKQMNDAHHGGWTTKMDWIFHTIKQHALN", "T32 sequence (P27986 1-571 partner limits assumed)": "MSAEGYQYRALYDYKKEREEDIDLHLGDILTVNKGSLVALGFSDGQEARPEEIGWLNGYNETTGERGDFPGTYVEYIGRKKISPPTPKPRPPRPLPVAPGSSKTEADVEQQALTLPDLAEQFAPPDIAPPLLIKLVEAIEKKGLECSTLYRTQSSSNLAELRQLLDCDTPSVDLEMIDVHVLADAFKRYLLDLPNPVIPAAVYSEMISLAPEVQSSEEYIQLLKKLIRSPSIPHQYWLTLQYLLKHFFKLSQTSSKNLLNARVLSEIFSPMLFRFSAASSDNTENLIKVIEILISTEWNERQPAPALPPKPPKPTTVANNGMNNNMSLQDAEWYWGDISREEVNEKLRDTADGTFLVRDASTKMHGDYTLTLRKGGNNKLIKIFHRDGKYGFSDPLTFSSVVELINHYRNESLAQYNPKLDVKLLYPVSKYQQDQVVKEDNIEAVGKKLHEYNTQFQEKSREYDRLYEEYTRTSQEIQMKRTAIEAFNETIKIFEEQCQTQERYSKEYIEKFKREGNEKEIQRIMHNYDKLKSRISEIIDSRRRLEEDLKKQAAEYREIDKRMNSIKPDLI", "conditions": "read-out: Inhibition(%) @ 1 µM RK-019", "procedure,_shortened": "as §1"}}, "data": [{"smiles": "COc1cc(OC)cc(N(CCN[C@H](C)CO)c2ccc3ncc(-c4cnn(C)c4)c(=O)n3c2)c1", "note": "[RK-019, (R)-7-((3,5-dimethoxyphenyl) (2-((1-hydroxypropan-2-yl)amino)ethyl)amino)-3-(1-methyl-1H-pyrazol-4-yl)-4H-pyrido [1,2-a]pyrimidin-4-one]", "values": [{"measurement": "activity at 1 µM", "setting": "DCAMKL2(h)", "result": 126, "unit": "%"}, {"measurement": "activity at 1 µM", "setting": "CaMKIß(h)", "result": 97, "unit": "%"}, {"measurement": "activity at 1 µM", "setting": "PAK3(h)", "result": 97, "unit": "%"}, {"measurement": "activity at 1 µM", "setting": "EphB2(h)", "result": 96, "unit": "%"}, {"measurement": "activity at 1 µM", "setting": "B-Raf(h)", "result": 124, "unit": "%"}, {"measurement": "activity at 1 µM", "setting": "PKCθ(h)", "result": 119, "unit": "%"}, {"measurement": "activity at 1 µM", "setting": "GCN2(h)", "result": 134, "unit": "%"}, {"measurement": "activity at 1 µM", "setting": "PAR-1Bα(h)", "result": 92, "unit": "%"}, {"measurement": "activity at 1 µM", "setting": "Met(Y1248C)(h)", "result": 85, "unit": "%"}, {"measurement": "activity at 1 µM", "setting": "PKCζ(h)", "result": 91, "unit": "%"}, {"measurement": "activity at 1 µM", "setting": "EphA1(h)", "result": 19, "unit": "%"}, {"measurement": "activity at 1 µM", "setting": "A-Raf(h)", "result": 133, "unit": "%"}, {"measurement": "activity at 1 µM", "setting": "SAPK2b(h)", "result": 94, "unit": "%"}, {"measurement": "activity at 1 µM", "setting": "Src(1-530)(h)", "result": 45, "unit": "%"}, {"measurement": "activity at 1 µM", "setting": "NEK11(h)", "result": 118, "unit": "%"}, {"measurement": "activity at 1 µM", "setting": "MRCKβ(h)", "result": 108, "unit": "%"}, {"measurement": "activity at 1 µM", "setting": "CDK5/p35(h)", "result": 106, "unit": "%"}, {"measurement": "activity at 1 µM", "setting": "DRAK1(h)", "result": 95, "unit": "%"}, {"measurement": "activity at 1 µM", "setting": "ROCK-I(h)", "result": 101, "unit": "%"}, {"measurement": "activity at 1 µM", "setting": "CaMKIIα(h)", "result": 64, "unit": "%"}, {"measurement": "activity at 1 µM", "setting": "PDGFRα(V561D)(h)", "result": 1, "unit": "%"}, {"measurement": "activity at 1 µM", "setting": "CaMKIδ(h)", "result": 98, "unit": "%"}, {"measurement": "activity at 1 µM", "setting": "WNK4(h)", "result": 86, "unit": "%"}, {"measurement": "activity at 1 µM", "setting": "CDK7/cyclinH/MAT1(h)", "result": 108, "unit": "%"}, {"measurement": "activity at 1 µM", "setting": "Lyn(m)", "result": 23, "unit": "%"}, {"measurement": "activity at 1 µM", "setting": "GSK3α(h)", "result": 85, "unit": "%"}, {"measurement": "activity at 1 µM", "setting": "Tec(h) activated", "result": 96, "unit": "%"}, {"measurement": "activity at 1 µM", "setting": "ZIPK(h)", "result": 96, "unit": "%"}, {"measurement": "inhibition at 1 µM", "setting": "Ret(h); RET, 1 µM, read-out: inhibition (hit in panel)", "result": "> 90", "unit": "%"}, {"measurement": "activity at 1 µM", "setting": "Ret(h); Ret(h), read-out: Inhibition(%) @ 1 µM RK-019", "result": 5, "unit": "%"}, {"measurement": "activity at 1 µM", "setting": "MARK4(h)", "result": 106, "unit": "%"}, {"measurement": "activity at 1 µM", "setting": "TSSK4(h)", "result": 106, "unit": "%"}, {"measurement": "activity at 1 µM", "setting": "[1]", "result": 94, "unit": "%"}]}]}
